Laboratory results reported in patent US6544551B1, “Solid pharmaceutical compositions containing hexedecylphosphocholine (miltefosine) for oral administration in the treatment of leishmaniasis” (priority 1998, dated 2003).

Columns and labels:
[1] = test system: visceral leishmaniasis (VL); assay: Clinical study of oral miltefosine capsules in human visceral leishmaniasis: efficacy; type: in vivo
Protocol: (§1) Miltefosine (MILT, hexadecylphosphocholine, ASTA Medica), an antineoplastic alkylphospholipid, is active in experimental visceral leishmaniasis (VL). To test oral MILT in human VL, 30 male Indian patients from Bihar (age>14 years; 18 of the 30 were antimony (Sb) failures) with splenic aspirate-positive VL were treated in 6 groups of 5 patients each (Groups A-F) for 28 days with escalating doses by oral administration of capsules according to example 1: (A) 50 mg once qod (qod=[…]), (B) 50 mg BID god (BID=twice per day), and then daily using 50 mg (C) BID (100 mg/d), (D) TID (150 mg/d), (E) QID (200 mg/d), and (F) 5×per day (250 mg/d).

[2] = Hygroscopicity (incorporation of water molecules); type: physicochemical
[3] = test system: experimental visceral leishmaniasis (VL); conditions: in vivo; cited from earlier work
[4] = Clinical study of oral miltefosine capsules in human visceral leishmaniasis: tolerability and safety; type: in vivo
Protocol: as §1

[5] = Day 14 results in 30 patients, Groups A-F together, oral
[6] = Group A: 50 mg once qod, 28 days, oral
[7] = Group B: 50 mg BID qod, 28 days, oral
[8] = Group D: 50 mg TID (150 mg/d), 28 days, oral

CCCCCCCCCCCCCCCCOP(=O)([O-])OCC[N+](C)(C)C [Miltefosine, hexadecylphosphocholine]
patients afebrile by day 7 ([1]; 30 male Indian VL patients, Groups A-F together, oral capsules according to example 1, 28 days, day 7): 16 patients
all 3 responses (afebrile, decreased spleen size, negative aspirate) = apparent cures, day 14 ([1]; Day 14, Groups A-F together, oral): 21 of 30
afebrile, day 14 [1, 5]: 25 patients
decreased spleen size, day 14 [1, 5]: 25 patients
negative spleenic aspirates (apparent parasitologic cure), day 14 [1, 5]: 28 patients
apparent cures on day 28 (percent of patients) ([1]; Day 28, 29 patients): 100%
apparent cures on day 28 ([1]; Day 28, Groups A-F together, including 4 patients with less than 10 days of therapy): 29 of 29
cure (no relapse, parasite-free bone marrow aspirate) within 6 months, Group A [1, 6]: 2/5
relapsed within 6 months, Group A [1, 6]: 3/5
cure (no relapse, parasite-free bone marrow aspirate) within 6 months, Group B [1, 7]: 2/5
relapsed within 6 months, Group B [1, 7]: 3/5
cure (no relapse, parasite-free bone marrow aspirate) within 6 months, Group C ([1]; Group C: 50 mg BID (100 mg/d), 28 days, oral): 5/5
cure (no relapse, parasite-free bone marrow aspirate) within 6 months, Group D [1, 8]: 4/5
relapsed within 6 months, Group D [1, 8]: 1/5
cure (no relapse, parasite-free bone marrow aspirate) within 6 months, Group E ([1]; Group E: 50 mg QID (200 mg/d), 28 days, oral): 5/5
apparent cures relapsed within 6 months ([1]; all groups, within 6 months): 7 of 29
apparent cure (no relapse, parasite-free bone marrow aspirate) within 6 months ([1]; all groups, within 6 months, 1 patient still in follow up): 21 of 26
patients with definite cure who had failed prior therapy with antimony ([1]; of the first 21 patients with definite cure): 14 patients
increase in weight by incorporation of water molecules [2]: up to 30%
activity in experimental visceral leishmaniasis [3]: active
patients died ([4]; Group F (250 mg/d), died on day 21, drug stopped on day 19, severe vomiting and diarrhea, dehydration, renal failure): 1 patient
hematologic toxicity ([4]; human, in vivo): no hematologic toxicity
mild vomiting or diarrhea lasting 3-7 days ([4]; human, in vivo): most patients
patients removed because of vomiting, Group F ([4]; male, human, in vivo, 28 days): 3
maximum tolerated daily dose ([4]; oral, human VL patients, 28 days): 200 mg/day
